How the values were obtained:
Format in all cases: in vivo
[1] = system: 129S6/SvEv mice; test: Forced swim test (FST); immobility time; details: for p, Immobility Time (s), FST Day 2, (R,S)-ketamine vs. FENM: (R,S)-ketamine 30 mg/kg vs. FENM 20 mg/kg; for p, Immobility Time (s), FST Day 2, Saline vs. drug: (R,S)-ketamine 30 mg/kg
Method: The FST was administered as previously described (47). Briefly, mice were placed into clear plastic buckets 20 cm in diameter and 23 cm deep filled ⅔ of the way with 22° C. water. Mice were videotaped from the side for 6 min and were exposed to the swim test on 2 consecutive days Immobility time was scored by an experimenter blind to the experimental groups.

[2] = system: 129S6/SvEv mice; test: Elevated plus maze (EPM); details: for distance travelled in the EPM / time spent in the open arms and center of the EPM: (R,S)-ketamine 30 mg/kg, FENM 10, 20 or 30 mg/kg
Method: Testing was performed as previously described (47). Briefly, the maze is a plus-cross-shaped apparatus consisting of four arms, two open and two enclosed by walls, linked by a central platform at a height of 50 cm from the floor. Mice were individually placed in the center of the maze facing an open arm and were allowed to explore the maze for 5 min. The time spent in and the number of entries into the open arms was used as an anxiety index. Videos were scored using ANY-maze behavior tracking software (Stoelting, Wood Dale, Ill.).

[3] = system: 129S6/SvEv mice; test: Marble burying (MB); details: for p, Fisher's PLSD Saline vs. drug, MB Marbles Buried (no.): drug 5 minutes after stress, FIG. 2K; for number of marbles buried: vs saline
Method: The MB assay was conducted in a clean cage (10.5 in×5.5 in) containing soft pliable Beta Chip bedding (Northeastern Products Corp, Warrensburg, N.Y.). The cage contained 16 marbles set up in 4 rows of 4 across. Mice were given 30 minutes to explore and bury. At the end of the assay, the percentage of marbles buried was calculated.

[4] = system: 129S6/SvEv mice; test: Novelty suppressed feeding (NSF); details: for Novelty Suppressed Feeding, Latency to feed in OF (sec), p (Fisher's LSD): FIG. 8P
Method: Testing was performed as previously described (47). Briefly, the NSF testing apparatus consisted of a plastic box (50×50×20 cm). The floor of which was covered with approximately 2 cm of wooden bedding and the arena was brightly lit (approximately 1000 lux). Mice were food restricted for 24 h prior to testing. At the time of testing, a single pellet of food (regular chow) was placed on a white paper platform positioned in the center of the box. Each animal was placed in a corner of the box, and a stopwatch was immediately started. The latency of the mice to begin eating in the arena was recorded Immediately after the latency was recorded, the food pellet was removed from the arena. The mice were then placed back into their home cage. The latency to eat and the amount of food consumed in 5 min were measured (home cage consumption), followed by an assessment of post-restriction weight. A Kaplan-Meier survival analysis was used due to the lack of normal distribution of data. The Mantel-Cox log-rank test was used to evaluate differences between the experimental groups.

[5] = Fisher's LSD, Baseline cohort, FENM 20 mg/kg, FIG. 6D
[6] = Saline vs. FENM (20 mg/kg), FIG. 8H
[7] = dose (20), drug 5 minutes after stress, FIG. 2F
[8] = non-stressed mice, FENM 20 mg/kg 1 hour before the start of the FST, vs saline
[9] = 5 minutes after CFC, re-exposure 5 days after training, vs saline
[10] = non-stressed mice, FENM 20 mg/kg 1 hour before the start of the OF, vs saline
[11] = 5 min after context re-exposure 1, (R,S)-ketamine 30 mg/kg, FENM 20 mg/kg, vs saline
[12] = 5 minutes after CFC, re-exposure 1 day after training, (R,S)-ketamine 30 mg/kg, FENM 20 mg/kg, vs saline
[13] = 5 minutes prior to re-exposure 1, (R,S)-ketamine 30 mg/kg, FENM 20 mg/kg, vs saline

## NC12CC3CC(C1)CC(CCF)(C3)C2 [FENM, 1-amino-3-fluoroethyl-adamantane]
[1]; Antidepressant (5 min after stress), dose 20 mg/kg
  Behavior: Depressive-like: ↓
[1]; Antidepressant (5 min after stress), dose 30 mg/kg
  Behavior: Depressive-like: ↓
[1]; Antidepressant (5 min after stress; extinction), dose 20 mg/kg
  Behavior: Depressive-like: ↓
[1]; [5]
  p, Immobility Time Min 1 (sec), FST Day 2, Saline vs. FENM: 0.3330
  p, Immobility Time Min 2 (sec), FST Day 2, Saline vs. FENM: 0.4156
  p, Immobility Time Min 3 (sec), FST Day 2, Saline vs. FENM: 0.0346
  p, Immobility Time Min 4 (sec), FST Day 2, Saline vs. FENM: 0.2905
  p, Immobility Time Min 5 (sec), FST Day 2, Saline vs. FENM: 0.6448
  p, Immobility Time Min 6 (sec), FST Day 2, Saline vs. FENM: 0.5256
[1]; Fisher's PLSD after ANOVA, drug 5 minutes after stress, FIG. 3K
  p, Immobility Time (s), FST Day 2, (R,S)-ketamine vs. FENM: 0.0014
[1]; Fisher's PLSD after ANOVA, drug 5 minutes after stress, FENM 20 mg/kg, FIG. 3K
  p, Immobility Time (s), FST Day 2, Saline vs. drug: 0.0097
[1]; Fisher's PLSD after RMANOVA, drug 5 minutes after stress, FIG. 3J
  p, Immobility Time (s), FST Day 2, (R,S)-ketamine vs. FENM: 0.0069
[1]; Fisher's PLSD after RMANOVA, drug 5 minutes after stress, FENM 20 mg/kg, FIG. 3J
  p, Immobility Time (s), FST Day 2, Saline vs. drug: 0.0234
[1]; Prophylactic (7 days before stress), dose 10 mg/kg
  Behavior: Depressive-like: ↓
[1]; Prophylactic (7 days before stress), dose 20 mg/kg
  Behavior: Depressive-like: ↓
[1]; Prophylactic (7 days before stress), dose 30 mg/kg
  Behavior: Depressive-like: ↓
[1]; [6]
  Forced Swim Test Day 1, Immobility Time Min 1 (sec), p (Fisher's LSD): <0.0001
  Forced Swim Test Day 1, Immobility Time Min 2 (sec), p (Fisher's LSD): 0.0752
  Forced Swim Test Day 1, Immobility Time Min 3 (sec), p (Fisher's LSD): 0.0422
  Forced Swim Test Day 1, Immobility Time Min 4 (sec), p (Fisher's LSD): 0.4348
  Forced Swim Test Day 1, Immobility Time Min 5 (sec), p (Fisher's LSD): 0.8223
  Forced Swim Test Day 1, Immobility Time Min 6 (sec), p (Fisher's LSD): 0.0677
[1]; Saline vs. FENM (20 mg/kg), after ANOVA, FIG. 8K
  Forced Swim Test Day 2, Immobility Time (sec), p (Fisher's LSD): 0.3636
[1]; Saline vs. FENM (20 mg/kg), after RMANOVA, FIG. 8J
  Forced Swim Test Day 2, Immobility Time (sec), p (Fisher's LSD): 0.3085
[1]; [7]
  p, Fisher's PLSD Saline vs. drug, FST Day 2 Immobility Time Min 1 (s): 0.0237
  p, Fisher's PLSD Saline vs. drug, FST Day 2 Immobility Time Min 2 (s): 0.0034
  p, Fisher's PLSD Saline vs. drug, FST Day 2 Immobility Time Min 3 (s): 0.0763
  p, Fisher's PLSD Saline vs. drug, FST Day 2 Immobility Time Min 4 (s): 0.1586
  p, Fisher's PLSD Saline vs. drug, FST Day 2 Immobility Time Min 5 (s): 0.0575
  p, Fisher's PLSD Saline vs. drug, FST Day 2 Immobility Time Min 6 (s): 0.2137
[1]; dose (20), drug 5 minutes after stress, after ANOVA, FIG. 2G
  p, Fisher's PLSD Saline vs. drug, FST Day 2 Immobility Time (s): 0.0024
[1]; [8]
  immobility, day 1 of the FST: comparable
  immobility, day 2 of the FST: comparable
[1]; t-test, Baseline cohort, FENM 20 mg/kg, FIG. 6C
  p, Immobility Time (sec), FST Day 1, Saline vs. FENM: 0.7086
[1]; t-test, Baseline cohort, FENM 20 mg/kg, FIG. 6E
  p, Immobility Time (sec), FST Day 2, Saline vs. FENM: 0.7847
[2]; 1 week prior to CFC, vs saline
  distance travelled in the EPM: did not alter
  time spent in the open arms and center of the EPM: did not alter
[2]; [9]
  distance travelled in the EPM: did not alter
  time spent in the open arms and center of the EPM: did not alter
[2]; [10]
  time in the open arms, closed arms, and center of the EPM: comparable
[2]; t-test, Baseline, anxiety cohort, FENM 20 mg/kg, FIG. 7G
  p, Time in Open Arms (sec), EPM, Saline vs. FENM: 0.5729
[2]; t-test, Baseline, anxiety cohort, FENM 20 mg/kg, FIG. 7H
  p, Time in Closed Arms (sec), EPM, Saline vs. FENM: 0.5729
[2]; t-test, Baseline, anxiety cohort, FENM 20 mg/kg, FIG. 7I
  p, Time in Center (sec), EPM, Saline vs. FENM: 0.3211
[3]; 10 mg/kg
  p, Fisher's PLSD Saline vs. drug, MB Marbles Buried (no.): 0.0737
[3]; 30 mg/kg
  p, Fisher's PLSD Saline vs. drug, MB Marbles Buried (no.): 0.0097
[3]; 5 minutes after CFC, re-exposure 5 days after training, FENM 20 and 30 mg/kg, (R,S)-ketamine 30 mg/kg
  number of marbles buried: decreased the number of marbles buried
[3]; dose (20)
  p, Fisher's PLSD Saline vs. drug, MB Marbles Buried (no.): 0.0002
[3]; non-stressed mice, FENM 20 mg/kg 1 hour before the start of the OF
  number of marbles buried: did not affect
[3]; t-test, Baseline, anxiety cohort, FENM 20 mg/kg, FIG. 7F
  p, Marbles Buried (no.), MB, Saline vs. FENM: 0.4657
[4]; 1 week prior to CFC, (R,S)-ketamine 30 mg/kg, FENM 10, 20 or 30 mg/kg, vs saline
  latency to feed in the open arena (NSF): did not alter
[4]; [11]
  latency to eat in the NSF arena: did not alter
  latency to eat in the homecage (NSF): did not alter
[4]; 5 min prior to CFC, (R,S)-ketamine 30 mg/kg, FENM 20 mg/kg, vs saline
  latency to feed in the open arena (NSF): but not FENM, increased
[4]; [12]
  latency to feed in the home cage (NSF): did not alter
  latency to feed in the open arena (NSF): did not alter
[4]; 5 minutes after CFC, re-exposure 5 days after training, (R,S)-ketamine 30 mg/kg, FENM 10, 20 or 30 mg/kg, vs saline
  latency to feed in the open arena (NSF): did not alter
[4]; [13]
  latency to eat in the NSF arena: did not alter
  latency to eat in the homecage (NSF): did not alter
[4]; (R,S)-ketamine (30 mg/kg) vs. FENM (20 mg/kg)
  Novelty Suppressed Feeding, Latency to feed in OF (sec), p (Fisher's LSD): 0.0130
[4]; Baseline Anxiolytic, dose 20 mg/kg
  Behavior: Hypophagia: ↓
[4]; Log-rank (Mantel-Cox) test, Baseline, anxiety cohort, FENM 20 mg/kg, FIG. 7J
  p, Fraction of mice not eating in OF, NSF, Saline vs. FENM: 0.0210
[4]; Log-rank (Mantel-Cox) test, Baseline, anxiety cohort, FENM 20 mg/kg, FIG. 7K
  p, Fraction of mice not eating in HC, NSF, Saline vs. FENM: 0.7953
[4]; Saline vs. FENM (20 mg/kg)
  Novelty Suppressed Feeding, Latency to feed in OF (sec), p (Fisher's LSD): 0.4585
[4]; [10]
  latency to approach the pellet in the NSF arena: significantly decreased
  latency to eat in the homecage (NSF): did not alter
[4]; t-test, Baseline, anxiety cohort, FENM 20 mg/kg, FIG. 7L
  p, Change in Weight (g), NSF, Saline vs. FENM: 0.1661
[4]; t-test, Baseline, anxiety cohort, FENM 20 mg/kg, FIG. 7M
  p, Food Eaten (g), NSF, Saline vs. FENM: 0.0801
